{"source": "paper PMC7655512", "about": "(Cell stem cell, 2020)", "key": {"SCN5A L409P/R588 mutant": {"target": "SCN5A L409P/R588 mutant (Homo sapiens, UniProt Q14524, H558R/L409P)", "sequence (Q14524 whole entry L409P/H558R)": "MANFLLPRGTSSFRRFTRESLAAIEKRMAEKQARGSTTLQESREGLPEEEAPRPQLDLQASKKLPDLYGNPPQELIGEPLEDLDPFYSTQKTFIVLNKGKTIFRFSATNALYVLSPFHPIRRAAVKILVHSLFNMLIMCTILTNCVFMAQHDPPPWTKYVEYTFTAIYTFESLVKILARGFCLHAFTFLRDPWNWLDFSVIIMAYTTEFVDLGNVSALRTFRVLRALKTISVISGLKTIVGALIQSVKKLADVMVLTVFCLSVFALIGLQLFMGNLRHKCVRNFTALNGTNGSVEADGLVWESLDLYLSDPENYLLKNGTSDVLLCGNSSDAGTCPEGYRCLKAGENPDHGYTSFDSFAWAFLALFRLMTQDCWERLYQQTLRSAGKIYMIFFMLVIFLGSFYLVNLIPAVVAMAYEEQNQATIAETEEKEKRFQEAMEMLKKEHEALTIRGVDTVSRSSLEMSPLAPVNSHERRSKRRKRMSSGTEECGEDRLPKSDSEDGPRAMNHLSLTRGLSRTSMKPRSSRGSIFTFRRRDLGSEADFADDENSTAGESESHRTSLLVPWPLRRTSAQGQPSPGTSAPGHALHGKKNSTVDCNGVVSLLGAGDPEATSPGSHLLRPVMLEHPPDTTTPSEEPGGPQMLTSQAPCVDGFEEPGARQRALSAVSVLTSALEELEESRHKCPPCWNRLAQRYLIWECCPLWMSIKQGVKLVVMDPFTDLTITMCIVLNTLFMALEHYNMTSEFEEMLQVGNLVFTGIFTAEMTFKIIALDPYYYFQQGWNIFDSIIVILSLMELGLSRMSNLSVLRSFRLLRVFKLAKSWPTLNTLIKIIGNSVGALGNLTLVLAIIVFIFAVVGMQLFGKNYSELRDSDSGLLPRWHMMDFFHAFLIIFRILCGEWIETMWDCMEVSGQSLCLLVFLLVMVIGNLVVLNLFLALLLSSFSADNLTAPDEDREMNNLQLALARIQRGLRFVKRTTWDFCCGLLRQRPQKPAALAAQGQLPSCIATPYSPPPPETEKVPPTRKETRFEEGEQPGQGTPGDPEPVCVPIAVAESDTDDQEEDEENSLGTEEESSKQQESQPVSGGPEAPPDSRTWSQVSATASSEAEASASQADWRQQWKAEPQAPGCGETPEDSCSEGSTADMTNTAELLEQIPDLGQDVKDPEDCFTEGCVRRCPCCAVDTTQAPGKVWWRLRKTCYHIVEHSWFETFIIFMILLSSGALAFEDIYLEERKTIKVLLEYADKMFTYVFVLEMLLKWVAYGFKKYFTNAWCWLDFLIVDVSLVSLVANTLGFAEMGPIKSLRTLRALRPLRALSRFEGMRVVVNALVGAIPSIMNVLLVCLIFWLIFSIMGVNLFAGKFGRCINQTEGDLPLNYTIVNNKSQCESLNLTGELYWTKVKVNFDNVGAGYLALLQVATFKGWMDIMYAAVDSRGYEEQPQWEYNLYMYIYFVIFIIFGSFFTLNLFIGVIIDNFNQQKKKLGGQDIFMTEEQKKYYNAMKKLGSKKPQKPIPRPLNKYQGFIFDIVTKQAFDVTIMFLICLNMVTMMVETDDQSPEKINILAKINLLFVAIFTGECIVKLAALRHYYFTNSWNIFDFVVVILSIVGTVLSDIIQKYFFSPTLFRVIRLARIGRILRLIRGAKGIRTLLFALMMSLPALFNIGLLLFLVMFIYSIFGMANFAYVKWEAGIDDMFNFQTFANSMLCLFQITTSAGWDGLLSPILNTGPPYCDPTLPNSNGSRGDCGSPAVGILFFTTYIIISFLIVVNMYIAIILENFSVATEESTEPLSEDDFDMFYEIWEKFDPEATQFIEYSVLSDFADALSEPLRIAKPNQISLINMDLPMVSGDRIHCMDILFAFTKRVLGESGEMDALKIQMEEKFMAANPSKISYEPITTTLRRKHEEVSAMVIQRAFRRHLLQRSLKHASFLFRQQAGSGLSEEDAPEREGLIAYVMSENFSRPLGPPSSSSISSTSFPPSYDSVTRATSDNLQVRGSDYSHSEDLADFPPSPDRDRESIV", "experiment": "Automated planar patch clamp of LQT3 mutant channel in HEK293T cells", "format": "cell-based", "conditions": "for preference of block between INaP and INaL: result in words"}, "[1]": {"tested_on": "genetic and pharmacological LQT3 hiPSC-CM models", "experiment": "Optical voltage assay across genetic and pharmacological LQT3 hiPSC-CM models", "format": "cell-based, human", "conditions": "for general APD effect at low or high doses: summary over all models, result in words"}, "[2]": {"tested_on": "LQT3 SCN5A N406K hiPSC-CMs", "experiment": "Optical voltage assay, second genetic LQT3 model", "format": "cell-based, human", "conditions": "result in words"}, "[3]": {"tested_on": "HD.113 hiPSC-CMs treated with ATX-II", "experiment": "High dose ATX-II induced arrhythmia in healthy donor hiPSC-CMs", "format": "cell-based, human", "conditions": "ATX-II 1 μM; result in words"}, "HD.CDI hiPSC-CMs": {"tested_on": "HD.CDI hiPSC-CMs", "experiment": "High throughput optical action potential recording, healthy donor hiPSC-CMs", "conditions": "result in words"}}}
{"smiles": "Cc1cc(C)cc(OCC(N)c2ccccc2)c1", "note": "(stereo not shown) [MexA3]", "values": [{"measurement": "block of INaL", "setting": "SCN5A L409P/R588 mutant", "result": "did not block INaL"}, {"measurement": "preference of block between INaP and INaL", "setting": "SCN5A L409P/R588 mutant", "result": "preferentially blocked INaP over INaL"}]}
{"smiles": "COc1ccccc1OCC(O)CN1CCN(CC(=O)Nc2c(C)cccc2C)CC1", "note": "(stereo not shown) [ranolazine]", "values": [{"measurement": "general APD effect at low or high doses", "setting": "[1]", "result": "prolonged the APD at high doses"}, {"measurement": "APD change", "setting": "[2]", "result": "did not shorten APD and induced EADs at high doses"}, {"measurement": "suppression of spontaneous arrhythmia", "setting": "[2]", "result": "blocked arrhythmia only in the genetic LQT3 model"}, {"measurement": "suppression of ATX-II induced arrhythmia", "setting": "[3]", "result": "blocked arrhythmia only in the genetic LQT3 model"}]}
{"smiles": "COCCNC(COc1cccc(C)c1C)c1ccccc1", "note": "(stereo not shown) [MexA5, 2-(2,3-dimethylphenoxy)-N-(2-methoxyethyl)-1-phenylethan-1-amine]", "values": [{"measurement": "general APD effect at low or high doses", "setting": "[1]", "result": "most pronounced shortening at low doses"}, {"measurement": "suppression of spontaneous arrhythmia", "setting": "[2]", "result": "terminated spontaneous arrhythmias"}, {"measurement": "asystole effect, change with N-ethyl methoxy substitution", "setting": "HD.CDI hiPSC-CMs; high concentrations", "result": "decreased this effect"}]}
{"smiles": "FC(F)(F)Oc1ccc(-c2ccc3nnc(C(F)(F)F)n3c2)cc1", "note": "[GS-967]", "values": [{"measurement": "general APD effect at low or high doses", "setting": "[1]", "result": "most pronounced shortening at low doses"}, {"measurement": "suppression of spontaneous arrhythmia", "setting": "[2]", "result": "effective"}, {"measurement": "suppression of ATX-II induced arrhythmia", "setting": "[3]", "result": "effective"}]}
{"smiles": "Cc1ccccc1OCC(N)c1ccccc1", "note": "(stereo not shown) [MexA2, 1-Phenyl-2-(o-tolyloxy)ethan-1-amine]", "values": [{"measurement": "preference of block between INaP and INaL", "setting": "SCN5A L409P/R588 mutant", "result": "preferentially blocked INaP over INaL"}]}
{"smiles": "NC(COc1ccccc1C(F)(F)F)c1ccccc1", "note": "(stereo not shown) [MexA4, 1-Phenyl-2-(2-(trifluoromethyl)phenoxy)ethan-1-amine]", "values": [{"measurement": "proarrhythmic response (APD prolongation, EADs)", "setting": "HD.CDI hiPSC-CMs", "result": "not proarrhythmic"}]}
{"smiles": "Cc1cccc(C)c1OCC(C)N", "note": "(stereo not shown) [mexiletine, Mexiletine]", "values": [{"measurement": "APD change across LQT3 hiPSC-CM models", "setting": "[1]", "result": "substantially prolonged the AP in all hiPSC-CMs examined"}, {"measurement": "APD shortening in pharmacological LQT3 models", "setting": "[1]", "result": "not in all the pharmacological models"}, {"measurement": "general APD effect at low or high doses", "setting": "[1]", "result": "prolonged the APD at high doses"}, {"measurement": "APD change", "setting": "[2]", "result": "weakly"}, {"measurement": "proarrhythmic response (APD prolongation, EADs)", "setting": "HD.CDI hiPSC-CMs", "result": "proarrhythmic response"}]}
